This note sets out measurements from paper PMC10174618, “Monoterpenoid aryl hydrocarbon receptor allosteric antagonists protect against ultraviolet skin damage in female mice” (Nature Communications, 2023).

Assay in all cases: biochemical
Holding throughout (set-up): KINOMEscan scanMAX active site-directed competition binding assay, percent of control, 468 kinases
What all share (conditions): competition binding, percent of control

Assay [1] deals with BMX (Homo sapiens, UniProt P51813). The gist of the method:
(§1)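 KINOMEscan active site-directed competition binding assay against 468 human kinases with 100 μM S-carvone. Binding expressed as % of control, with 35% of control as the inhibition threshold.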

Assay [2] has as its target T1, SGK (Homo sapiens, UniProt O00141).
T1 construct: gene SGK1
The gist of the method:
as §1

Assay [3] deals with T2, ASK1 (Homo sapiens, UniProt Q99683).
T2 construct: gene MAP3K5
The gist of the method: as §1

Assay [4] deals with HIPK3 (Homo sapiens, UniProt Q9H422). The gist of the method:
as §1

In assay [5] the target is PIK3C2G (Homo sapiens, UniProt O75747). The gist of the method: as §1
Assay [6] addresses T3, p38-gamma (Homo sapiens, UniProt P53778).
T3 construct: gene MAPK12
The gist of the method: as §1

Assay [7] concerns the target NEK7 (Homo sapiens, UniProt Q8TDX7). The gist of the method: as §1
For assay [8], the target named is T4, PCTK1 (Homo sapiens, UniProt Q00536).
T4 construct: gene CDK16
The gist of the method: as §1

The target of assay [9] is FES (Homo sapiens, UniProt P07332). The gist of the method: as §1
Assay [10] deals with MYO3B (Homo sapiens, UniProt Q8WXR4). The gist of the method: as §1
Assay [11] has as its target AAK1 (Homo sapiens, UniProt Q2M2I8). The gist of the method:
as §1

Assay [12] deals with T5, p38-delta (Homo sapiens, UniProt O15264).
T5 construct: gene MAPK13
The gist of the method: as §1

Assay [13] deals with CAMKK2 (Homo sapiens, UniProt Q96RR4). The gist of the method:
as §1

For assay [14], the target named is T6, RSK1(Kin.Dom.2-C-terminal) (Homo sapiens, UniProt Q15418).
T6 construct: gene RPS6KA1; Kin.Dom.2-C-terminal
The gist of the method: as §1

For assay [15], the target named is T7, TYK2(JH1domain-catalytic) (Homo sapiens, UniProt P29597).
T7 construct: JH1domain-catalytic
The gist of the method:
as §1

Assay [16] addresses EGFR(L861Q) (Homo sapiens, UniProt P00533, L861Q). The gist of the method:
as §1

For assay [17], the target named is T8, TIE2 (Homo sapiens, UniProt Q02763).
T8 construct: gene TEK
The gist of the method: as §1

Assay [18] addresses T9, ZAK (Homo sapiens, UniProt Q9NYL2).
T9 construct: gene MAP3K20
The gist of the method: as §1

The target of assay [19] is FGFR2 (Homo sapiens, UniProt P21802). The gist of the method: as §1
The target in assay [20] is EGFR(L747-S752del, P753S) (Homo sapiens, UniProt P00533, DEL747-752/P753S). The gist of the method: as §1
For assay [21], the target named is EPHA6 (Homo sapiens, UniProt Q9UF33). The gist of the method:
as §1

Structures are written as SMILES.

BMX, sequence (P51813 whole entry): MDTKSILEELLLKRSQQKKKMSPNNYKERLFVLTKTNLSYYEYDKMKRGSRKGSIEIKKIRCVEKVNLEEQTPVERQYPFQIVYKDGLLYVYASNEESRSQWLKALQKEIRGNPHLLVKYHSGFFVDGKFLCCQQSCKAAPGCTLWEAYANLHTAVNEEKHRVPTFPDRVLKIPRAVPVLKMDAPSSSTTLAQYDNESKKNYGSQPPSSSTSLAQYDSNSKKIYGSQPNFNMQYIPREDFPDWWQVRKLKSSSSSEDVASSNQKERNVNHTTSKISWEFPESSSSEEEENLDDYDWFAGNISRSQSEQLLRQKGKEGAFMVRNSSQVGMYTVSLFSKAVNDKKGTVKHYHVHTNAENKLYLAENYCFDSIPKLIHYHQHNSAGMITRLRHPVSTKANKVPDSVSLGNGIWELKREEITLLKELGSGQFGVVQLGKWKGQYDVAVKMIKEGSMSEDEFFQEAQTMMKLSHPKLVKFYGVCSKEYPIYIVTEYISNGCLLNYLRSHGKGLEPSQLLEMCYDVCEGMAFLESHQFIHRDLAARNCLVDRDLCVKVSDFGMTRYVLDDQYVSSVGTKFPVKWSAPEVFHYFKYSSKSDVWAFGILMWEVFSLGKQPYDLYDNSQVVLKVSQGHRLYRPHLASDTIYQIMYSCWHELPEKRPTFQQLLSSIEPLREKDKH
T3 sequence (P53778 whole entry): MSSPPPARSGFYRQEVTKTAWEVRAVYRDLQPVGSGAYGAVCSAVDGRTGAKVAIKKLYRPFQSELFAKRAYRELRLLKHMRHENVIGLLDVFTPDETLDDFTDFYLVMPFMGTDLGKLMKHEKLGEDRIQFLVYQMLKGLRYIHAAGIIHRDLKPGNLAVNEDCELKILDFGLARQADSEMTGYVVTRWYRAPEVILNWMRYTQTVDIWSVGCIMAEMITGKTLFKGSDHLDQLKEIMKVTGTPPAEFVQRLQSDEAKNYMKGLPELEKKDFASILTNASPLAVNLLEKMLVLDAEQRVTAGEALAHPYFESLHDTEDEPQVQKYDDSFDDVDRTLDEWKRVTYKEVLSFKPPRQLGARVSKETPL
HIPK3, sequence (Q9H422 whole entry): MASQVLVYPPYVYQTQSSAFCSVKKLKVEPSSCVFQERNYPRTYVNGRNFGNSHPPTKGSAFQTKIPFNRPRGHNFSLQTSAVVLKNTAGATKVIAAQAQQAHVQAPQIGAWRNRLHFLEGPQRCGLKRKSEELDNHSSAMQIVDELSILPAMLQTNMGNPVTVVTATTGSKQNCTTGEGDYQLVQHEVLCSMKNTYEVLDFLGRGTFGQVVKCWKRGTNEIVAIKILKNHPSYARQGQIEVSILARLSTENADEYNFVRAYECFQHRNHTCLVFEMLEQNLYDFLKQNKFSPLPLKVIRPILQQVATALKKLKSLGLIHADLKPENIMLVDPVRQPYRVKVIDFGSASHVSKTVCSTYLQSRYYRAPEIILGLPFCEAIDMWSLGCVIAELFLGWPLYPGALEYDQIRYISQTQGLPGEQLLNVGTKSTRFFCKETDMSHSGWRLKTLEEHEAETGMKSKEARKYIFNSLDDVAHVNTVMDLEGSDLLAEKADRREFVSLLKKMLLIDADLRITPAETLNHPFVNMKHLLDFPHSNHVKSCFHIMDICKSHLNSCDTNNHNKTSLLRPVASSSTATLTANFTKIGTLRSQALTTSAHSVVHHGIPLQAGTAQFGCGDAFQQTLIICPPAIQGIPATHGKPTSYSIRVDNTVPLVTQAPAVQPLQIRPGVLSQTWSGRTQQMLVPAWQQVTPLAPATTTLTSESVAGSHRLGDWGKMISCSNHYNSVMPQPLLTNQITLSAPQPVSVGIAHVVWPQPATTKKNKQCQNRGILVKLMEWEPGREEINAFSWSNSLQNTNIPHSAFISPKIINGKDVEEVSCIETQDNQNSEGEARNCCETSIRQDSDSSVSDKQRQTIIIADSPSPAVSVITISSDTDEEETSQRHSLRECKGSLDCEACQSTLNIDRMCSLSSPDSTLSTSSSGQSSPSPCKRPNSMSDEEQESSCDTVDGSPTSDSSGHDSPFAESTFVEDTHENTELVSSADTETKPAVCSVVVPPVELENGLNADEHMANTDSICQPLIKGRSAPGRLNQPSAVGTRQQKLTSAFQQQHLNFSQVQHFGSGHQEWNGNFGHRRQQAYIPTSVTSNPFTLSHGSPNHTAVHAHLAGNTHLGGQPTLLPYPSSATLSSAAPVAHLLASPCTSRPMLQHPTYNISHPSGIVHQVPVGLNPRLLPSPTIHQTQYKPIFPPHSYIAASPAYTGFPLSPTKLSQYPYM
MYO3B, sequence (Q8WXR4 whole entry): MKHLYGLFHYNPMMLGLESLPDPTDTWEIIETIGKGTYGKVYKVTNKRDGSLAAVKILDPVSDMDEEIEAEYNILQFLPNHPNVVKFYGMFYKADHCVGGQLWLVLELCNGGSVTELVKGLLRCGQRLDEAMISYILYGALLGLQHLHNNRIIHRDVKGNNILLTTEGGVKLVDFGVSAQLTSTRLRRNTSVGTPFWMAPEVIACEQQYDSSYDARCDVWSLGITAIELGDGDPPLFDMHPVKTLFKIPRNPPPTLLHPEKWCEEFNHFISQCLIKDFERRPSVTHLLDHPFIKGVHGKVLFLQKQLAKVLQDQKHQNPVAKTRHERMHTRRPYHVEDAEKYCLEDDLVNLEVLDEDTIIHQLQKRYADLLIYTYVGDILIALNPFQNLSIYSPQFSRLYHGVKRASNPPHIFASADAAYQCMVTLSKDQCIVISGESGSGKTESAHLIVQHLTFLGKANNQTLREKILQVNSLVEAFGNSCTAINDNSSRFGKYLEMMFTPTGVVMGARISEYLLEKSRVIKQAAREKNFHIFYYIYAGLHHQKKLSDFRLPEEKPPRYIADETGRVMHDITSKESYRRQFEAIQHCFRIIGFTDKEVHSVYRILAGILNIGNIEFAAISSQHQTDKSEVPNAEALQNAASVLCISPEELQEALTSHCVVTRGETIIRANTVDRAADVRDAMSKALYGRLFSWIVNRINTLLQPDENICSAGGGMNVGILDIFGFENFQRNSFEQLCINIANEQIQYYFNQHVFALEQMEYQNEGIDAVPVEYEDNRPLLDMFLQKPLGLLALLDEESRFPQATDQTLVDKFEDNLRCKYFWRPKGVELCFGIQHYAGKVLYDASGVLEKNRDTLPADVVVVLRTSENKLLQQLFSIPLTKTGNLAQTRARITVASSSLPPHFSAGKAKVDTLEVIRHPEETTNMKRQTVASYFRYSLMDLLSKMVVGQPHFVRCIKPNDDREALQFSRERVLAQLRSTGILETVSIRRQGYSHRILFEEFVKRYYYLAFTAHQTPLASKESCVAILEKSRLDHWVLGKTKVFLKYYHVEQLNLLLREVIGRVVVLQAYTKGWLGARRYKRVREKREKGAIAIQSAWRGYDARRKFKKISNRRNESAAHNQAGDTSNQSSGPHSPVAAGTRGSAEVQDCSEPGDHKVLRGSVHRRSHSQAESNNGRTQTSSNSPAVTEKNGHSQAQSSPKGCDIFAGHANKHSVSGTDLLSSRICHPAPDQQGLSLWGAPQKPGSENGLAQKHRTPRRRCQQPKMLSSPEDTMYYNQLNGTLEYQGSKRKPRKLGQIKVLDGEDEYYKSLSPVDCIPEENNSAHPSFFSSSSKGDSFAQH
T4 sequence (Q00536 whole entry): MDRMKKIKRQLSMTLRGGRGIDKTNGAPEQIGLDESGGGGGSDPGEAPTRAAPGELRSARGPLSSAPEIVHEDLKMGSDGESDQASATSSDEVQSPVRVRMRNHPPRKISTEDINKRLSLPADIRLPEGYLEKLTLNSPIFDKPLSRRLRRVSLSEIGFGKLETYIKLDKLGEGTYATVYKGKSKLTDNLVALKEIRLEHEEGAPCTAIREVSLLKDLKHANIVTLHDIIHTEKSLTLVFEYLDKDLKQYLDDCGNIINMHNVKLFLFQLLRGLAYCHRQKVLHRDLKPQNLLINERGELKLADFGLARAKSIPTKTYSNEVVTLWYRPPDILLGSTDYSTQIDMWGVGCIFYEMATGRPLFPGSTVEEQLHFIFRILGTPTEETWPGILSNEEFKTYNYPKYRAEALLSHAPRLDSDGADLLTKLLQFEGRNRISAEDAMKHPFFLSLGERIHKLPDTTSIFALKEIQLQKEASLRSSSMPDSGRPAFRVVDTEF
T9 sequence (Q9NYL2 whole entry): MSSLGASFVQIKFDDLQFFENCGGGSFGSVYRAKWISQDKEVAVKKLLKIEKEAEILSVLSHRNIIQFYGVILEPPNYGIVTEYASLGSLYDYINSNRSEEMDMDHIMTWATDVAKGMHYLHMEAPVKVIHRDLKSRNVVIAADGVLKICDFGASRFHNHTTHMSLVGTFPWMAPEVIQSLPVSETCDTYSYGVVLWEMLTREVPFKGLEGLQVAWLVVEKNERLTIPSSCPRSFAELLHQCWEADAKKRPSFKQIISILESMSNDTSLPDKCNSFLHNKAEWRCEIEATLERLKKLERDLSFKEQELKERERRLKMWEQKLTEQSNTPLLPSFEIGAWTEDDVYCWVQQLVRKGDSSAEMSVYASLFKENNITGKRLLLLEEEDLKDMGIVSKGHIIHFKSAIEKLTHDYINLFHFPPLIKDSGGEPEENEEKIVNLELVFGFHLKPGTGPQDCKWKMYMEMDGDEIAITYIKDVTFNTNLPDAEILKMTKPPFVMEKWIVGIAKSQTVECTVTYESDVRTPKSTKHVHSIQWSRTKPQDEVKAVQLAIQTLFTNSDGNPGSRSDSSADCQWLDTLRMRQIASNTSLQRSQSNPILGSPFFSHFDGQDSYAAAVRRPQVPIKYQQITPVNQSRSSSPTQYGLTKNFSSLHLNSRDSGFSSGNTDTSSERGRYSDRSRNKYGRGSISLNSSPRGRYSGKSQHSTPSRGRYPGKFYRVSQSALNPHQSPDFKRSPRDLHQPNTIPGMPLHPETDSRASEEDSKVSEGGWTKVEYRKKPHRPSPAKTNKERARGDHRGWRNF

Turning to `C=C(C)[C@H]1CC=C(C)C(=O)C1` [S-carvone], the remaining binding at 100 µM is 67% in [1]; 70% in [2]; 81% in assay [3]; 51% in assay [4]; 62% in assay [5]; 72% in assay [6]. The remaining binding at 100 µM in assay [7] stood at 74%; in assay [8] it was 100%; in [9], 69%; in [10], 94%; in [11], 77%; in assay [12], 57%. The remaining binding at 100 µM in assay [13] stood at 81%; in assay [14] it was 54%; in [15] it was 58%; in assay [16], 65%; in [17] it was 84%; in [18], 72%. Also, the remaining binding at 100 µM came out at 80% in assay [19], 68% in assay [20] and 64% in assay [21].
